According to US9636418B2 (priority 2013, dated 2017):
Where “and” joins values, the source holds several entries; their conditions need not be identical. Equal entries are not always repeated. Where two headings read alike, the source gives them in different places.

Tests used:
Assay in all cases: cell-based
hNav1.4 [1] = biological target: T1, hNav1.4 (Homo sapiens, UniProt P35499); conditions: for IC50: IonWorks Quattro, read-out: IC50 Nav1.4; for Nav1.4/Nav1.7: ratio of IonWorks Quattro IC50 values
hNav1.5 [2] = biological target: T2, hNav1.5 (Homo sapiens, UniProt Q14524); conditions: for IC50: PatchXpress, read-out: PX hNav1.5 Tonic IC50
T2 sequence (Q14524 whole entry): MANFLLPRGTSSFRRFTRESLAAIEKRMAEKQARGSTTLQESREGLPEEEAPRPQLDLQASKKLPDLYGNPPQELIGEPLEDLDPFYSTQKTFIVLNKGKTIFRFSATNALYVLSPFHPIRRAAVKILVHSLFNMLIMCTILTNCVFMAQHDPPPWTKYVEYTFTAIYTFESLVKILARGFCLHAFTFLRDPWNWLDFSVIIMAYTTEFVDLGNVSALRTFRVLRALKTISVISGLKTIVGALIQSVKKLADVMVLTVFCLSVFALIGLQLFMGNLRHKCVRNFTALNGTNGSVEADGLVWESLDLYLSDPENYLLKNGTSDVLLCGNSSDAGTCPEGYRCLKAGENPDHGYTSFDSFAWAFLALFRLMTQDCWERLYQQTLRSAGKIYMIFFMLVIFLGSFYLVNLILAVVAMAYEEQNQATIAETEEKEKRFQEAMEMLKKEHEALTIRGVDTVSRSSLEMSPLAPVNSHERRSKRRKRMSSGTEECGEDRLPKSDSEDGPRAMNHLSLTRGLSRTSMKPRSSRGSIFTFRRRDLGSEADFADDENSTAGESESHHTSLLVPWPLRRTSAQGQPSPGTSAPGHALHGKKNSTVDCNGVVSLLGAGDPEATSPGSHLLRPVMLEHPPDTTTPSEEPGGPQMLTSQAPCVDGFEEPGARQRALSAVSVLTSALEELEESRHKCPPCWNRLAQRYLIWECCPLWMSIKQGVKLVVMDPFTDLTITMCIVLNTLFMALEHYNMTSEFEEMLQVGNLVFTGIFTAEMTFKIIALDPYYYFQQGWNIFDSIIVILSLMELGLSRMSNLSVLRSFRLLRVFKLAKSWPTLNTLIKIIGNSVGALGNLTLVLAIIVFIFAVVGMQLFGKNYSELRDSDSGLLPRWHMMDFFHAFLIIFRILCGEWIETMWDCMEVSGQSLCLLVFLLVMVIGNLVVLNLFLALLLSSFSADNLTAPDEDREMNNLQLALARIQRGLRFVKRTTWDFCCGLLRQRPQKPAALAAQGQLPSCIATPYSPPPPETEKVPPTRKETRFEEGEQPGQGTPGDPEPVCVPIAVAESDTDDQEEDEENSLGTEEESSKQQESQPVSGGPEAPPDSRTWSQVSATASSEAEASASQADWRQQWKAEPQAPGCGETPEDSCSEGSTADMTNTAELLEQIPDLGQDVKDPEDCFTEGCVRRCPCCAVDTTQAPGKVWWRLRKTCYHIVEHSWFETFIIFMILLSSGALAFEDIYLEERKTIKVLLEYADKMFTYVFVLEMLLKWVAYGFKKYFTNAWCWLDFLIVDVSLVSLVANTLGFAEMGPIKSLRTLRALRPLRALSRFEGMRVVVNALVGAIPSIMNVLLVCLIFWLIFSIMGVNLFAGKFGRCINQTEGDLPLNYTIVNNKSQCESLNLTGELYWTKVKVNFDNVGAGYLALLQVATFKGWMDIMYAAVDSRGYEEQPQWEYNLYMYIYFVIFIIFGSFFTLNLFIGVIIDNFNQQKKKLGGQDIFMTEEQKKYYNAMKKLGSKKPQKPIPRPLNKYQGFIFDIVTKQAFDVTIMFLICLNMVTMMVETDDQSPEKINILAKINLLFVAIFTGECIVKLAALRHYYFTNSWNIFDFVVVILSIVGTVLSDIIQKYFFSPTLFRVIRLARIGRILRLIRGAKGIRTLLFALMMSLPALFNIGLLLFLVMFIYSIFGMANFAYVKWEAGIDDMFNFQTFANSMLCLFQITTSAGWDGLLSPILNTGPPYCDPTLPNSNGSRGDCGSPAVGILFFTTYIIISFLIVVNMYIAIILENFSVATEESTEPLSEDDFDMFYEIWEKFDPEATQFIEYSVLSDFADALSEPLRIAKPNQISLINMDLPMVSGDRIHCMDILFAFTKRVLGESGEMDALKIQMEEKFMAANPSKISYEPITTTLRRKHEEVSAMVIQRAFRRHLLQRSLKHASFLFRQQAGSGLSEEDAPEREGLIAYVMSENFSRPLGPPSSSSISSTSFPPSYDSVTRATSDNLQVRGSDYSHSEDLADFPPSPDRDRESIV

hNav1.7 [3] = biological target: T3, hNav1.7 (Homo sapiens, UniProt Q15858); assay type: cell-based; conditions: PatchXpress, read-out: PX hNav1.7 Tonic IC50
hNav1.3 = hNav1.3 (Homo sapiens, UniProt Q9NY46); conditions: IonWorks Quattro; read-out: IC50 Nav1.3
Chain of hNav1.3 (Q9NY46 whole entry): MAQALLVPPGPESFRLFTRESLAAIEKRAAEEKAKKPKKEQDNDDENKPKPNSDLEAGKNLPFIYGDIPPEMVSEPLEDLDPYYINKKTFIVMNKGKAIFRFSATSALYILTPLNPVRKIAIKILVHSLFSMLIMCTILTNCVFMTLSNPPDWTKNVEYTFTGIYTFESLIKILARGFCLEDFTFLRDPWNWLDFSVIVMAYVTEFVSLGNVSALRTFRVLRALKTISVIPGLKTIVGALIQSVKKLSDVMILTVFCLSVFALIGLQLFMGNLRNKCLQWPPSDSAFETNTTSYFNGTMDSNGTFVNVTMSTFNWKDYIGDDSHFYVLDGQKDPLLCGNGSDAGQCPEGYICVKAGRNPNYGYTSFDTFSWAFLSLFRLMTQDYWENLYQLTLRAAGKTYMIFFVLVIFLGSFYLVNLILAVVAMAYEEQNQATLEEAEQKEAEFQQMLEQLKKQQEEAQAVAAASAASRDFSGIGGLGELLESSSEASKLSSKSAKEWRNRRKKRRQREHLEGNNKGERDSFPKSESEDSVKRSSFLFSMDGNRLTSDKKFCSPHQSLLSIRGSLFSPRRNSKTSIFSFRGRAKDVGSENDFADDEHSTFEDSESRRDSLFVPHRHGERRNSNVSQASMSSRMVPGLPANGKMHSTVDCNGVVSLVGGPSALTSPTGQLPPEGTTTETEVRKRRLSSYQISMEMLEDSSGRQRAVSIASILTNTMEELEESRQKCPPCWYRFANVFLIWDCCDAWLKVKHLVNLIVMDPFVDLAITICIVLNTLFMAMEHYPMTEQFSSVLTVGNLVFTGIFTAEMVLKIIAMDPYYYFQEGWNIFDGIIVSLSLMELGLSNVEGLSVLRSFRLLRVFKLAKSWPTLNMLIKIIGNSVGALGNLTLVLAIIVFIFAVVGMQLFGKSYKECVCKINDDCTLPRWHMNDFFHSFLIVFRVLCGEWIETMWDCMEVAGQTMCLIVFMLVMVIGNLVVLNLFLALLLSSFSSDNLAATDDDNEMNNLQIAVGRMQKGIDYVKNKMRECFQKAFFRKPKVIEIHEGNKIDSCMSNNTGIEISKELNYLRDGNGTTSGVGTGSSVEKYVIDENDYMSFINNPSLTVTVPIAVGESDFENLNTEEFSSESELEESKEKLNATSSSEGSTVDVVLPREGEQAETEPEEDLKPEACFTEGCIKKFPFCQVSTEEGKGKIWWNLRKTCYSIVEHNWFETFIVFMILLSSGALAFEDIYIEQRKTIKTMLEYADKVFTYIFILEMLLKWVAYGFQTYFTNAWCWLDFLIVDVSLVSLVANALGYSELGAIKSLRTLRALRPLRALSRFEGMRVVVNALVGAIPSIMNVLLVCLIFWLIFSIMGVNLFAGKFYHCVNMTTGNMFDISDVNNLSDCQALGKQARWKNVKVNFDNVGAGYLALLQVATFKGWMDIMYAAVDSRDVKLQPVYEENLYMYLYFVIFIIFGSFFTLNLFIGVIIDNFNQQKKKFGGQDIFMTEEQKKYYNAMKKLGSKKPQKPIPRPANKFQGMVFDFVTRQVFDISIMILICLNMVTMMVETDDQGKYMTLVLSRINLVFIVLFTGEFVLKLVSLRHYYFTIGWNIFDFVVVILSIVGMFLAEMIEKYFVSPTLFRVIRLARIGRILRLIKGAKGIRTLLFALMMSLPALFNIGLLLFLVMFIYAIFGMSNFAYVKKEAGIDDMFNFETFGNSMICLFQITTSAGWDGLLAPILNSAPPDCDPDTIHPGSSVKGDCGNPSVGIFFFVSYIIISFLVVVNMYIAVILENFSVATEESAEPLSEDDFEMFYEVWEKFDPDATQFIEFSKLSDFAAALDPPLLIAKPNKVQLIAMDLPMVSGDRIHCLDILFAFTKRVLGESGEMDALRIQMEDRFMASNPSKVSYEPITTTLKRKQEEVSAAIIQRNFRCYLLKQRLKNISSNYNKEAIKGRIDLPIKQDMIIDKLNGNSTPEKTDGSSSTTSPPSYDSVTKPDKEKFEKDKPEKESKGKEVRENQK

hNav1.7 [4] = biological target: T3, hNav1.7; conditions: IonWorks Quattro; read-out: IC50 Nav1.7
hNav1.5 [5] = biological target: T2, hNav1.5; conditions: IonWorks Quattro; read-out: IC50 Nav1.5
hNav1.4 [6] = biological target: T1, hNav1.4; conditions: for IC50: PatchXpress, read-out: PX hNav1.4 Tonic IC50
[7] = * = at high concentrations compound would wash off slowly or not at all

SMILES | IC50 (hNav1.4 [1]) | IC50 (hNav1.5 [2]; [7]) | IC50 (hNav1.7 [3]; [7]) | IC50 (hNav1.3) | IC50 (hNav1.7 [4]) | IC50 (hNav1.5 [5]) | IC50 (hNav1.4 [6]; [7]) | Nav1.4/Nav1.7 (hNav1.4 [1]) | Nav1.4/Nav1.7 (hNav1.4 [6]; ratio of PX IC50 values) | IC50 (hNav1.5 [2]; tonic block) | IC50 (hNav1.7 [3]; tonic block) | IC50 (hNav1.4 [6]; tonic block) | Nav1.4/Nav1.7 (hNav1.4 [6]; ratio of PX tonic IC50 values) | Nav1.5/Nav1.7 (hNav1.5 [2]; ratio of PX IC50 values)
CC[C@H](C)[C@H](NC(=O)[C@H](Cc1ccc(O)cc1)NC(=O)[C@H](CCCCN)NC(=O)[C@H](CCCNC(=N)N)NC(=O)[C@@H]1CSSC[C@@H]2NC(=O)[C@H](C)NC(=O)[C@H](CCCNC(=N)N)NC(=O)[C@H](CCCCN)NC(=O)[C@H](CO)NC(=O)[C@H](CC(=O)O)NC(=O)[C@@H]3CSSC[C@H](NC(=O)[C@H](CCC(=O)O)NC(=O)[C@H](CC(C)C)NC(=O)CNC(=O)[C@H](CCC(=O)O)NC(=O)[C@H](CSSC[C@H](NC(=O)[C@@H](N)Cc4ccc(O)cc4)C(=O)N[C@@H](CCC(N)=O)C(=O)N[C@@H](CCCCN)C(=O)N[C@@H](Cc4ccccc4)C(=O)N[C@@H](CCSC)C(=O)N[C@@H](Cc4c[nH]c5ccccc45)C(=O)N[C@@H]([C@@H](C)O)C(=O)N3)NC2=O)C(=O)N[C@@H](CCCCN)C(=O)N[C@@H](CC(C)C)C(=O)N[C@@H](Cc2c[nH]c3ccccc23)C(=O)N1)C(N)=O [compound 193] | > 5 µM | > 1 µM | 4.6 nM | > 5000 nM | 160 nM and 230 nM | > 5 µM | 1000 nM |  |  |  |  |  |  | 
CC[C@H](C)[C@H](NC(=O)[C@H](Cc1ccc(O)cc1)NC(=O)[C@H](CCCCN)NC(=O)[C@H](CCCNC(=N)N)NC(=O)[C@@H]1CSSC[C@@H]2NC(=O)[C@H](C)NC(=O)[C@H](CCCNC(=N)N)NC(=O)[C@H](CCCCN)NC(=O)[C@H](CO)NC(=O)[C@H](CC(=O)O)NC(=O)[C@@H]3CSSC[C@H](NC(=O)[C@H](CCC(=O)O)NC(=O)[C@H](CC(C)C)NC(=O)CNC(=O)[C@H](CCC(=O)O)NC(=O)[C@H](CSSC[C@H](NC(=O)[C@@H](N)Cc4ccc(O)cc4)C(=O)N[C@@H](CCC(N)=O)C(=O)N[C@@H](CCCCN)C(=O)N[C@@H](Cc4c[nH]c5ccccc45)C(=O)N[C@@H](CCSC)C(=O)N[C@@H](Cc4c[nH]c5ccccc45)C(=O)N[C@@H]([C@@H](C)O)C(=O)N3)NC2=O)C(=O)N[C@@H](CCCCN)C(=O)N[C@@H](CC(C)C)C(=O)N[C@@H](Cc2c[nH]c3ccccc23)C(=O)N1)C(N)=O [compound 137] | > 3.5 µM | 11.4 µM | 0.9 nM | 2010 nM | 90 nM | 8 µM | 1270 nM | 41 |  |  |  |  |  | 
CSCC[C@@H]1NC(=O)[C@H](Cc2c[nH]c3ccccc23)NC(=O)[C@H](CCCCN)NC(=O)[C@H](CCC(N)=O)NC(=O)[C@@H](NC(=O)[C@@H](N)Cc2ccc(O)cc2)CSSC[C@@H]2NC(=O)[C@@H]3CSSC[C@@H](C(=O)N[C@@H](CCCNC(=N)N)C(=O)N[C@@H](CCCCN)C(=O)N[C@@H](Cc4ccc(O)cc4)C(=O)N[C@@H](CC(C)C)C(N)=O)NC(=O)[C@H](Cc4c[nH]c5ccccc45)NC(=O)[C@H](CC(C)C)NC(=O)[C@H](CCCCN)NC(=O)[C@H](CSSC[C@H](NC(=O)[C@H]([C@@H](C)O)NC(=O)[C@H](Cc4c[nH]c5ccccc45)NC1=O)C(=O)N[C@@H](CC(=O)O)C(=O)N[C@@H](CO)C(=O)N[C@@H](CCCCN)C(=O)N[C@@H](CCCNC(=N)N)C(=O)N[C@@H](C)C(=O)N3)NC(=O)[C@H](CCC(=O)O)NC(=O)[C@H](CC(C)C)NC(=O)CNC(=O)[C@H](CCC(=O)O)NC2=O [compound 238] | 4.5 µM and > 5 µM | 7.33 µM | 2.6 nM | 3000 nM and > 5000 nM | 84 nM and 230 nM | > 5 µM | 626 nM |  |  |  |  |  |  | 
CC[C@H](C)[C@H](NC(=O)[C@H](Cc1ccc(O)cc1)NC(=O)[C@H](CCCCN)NC(=O)[C@H](CCCNC(=N)N)NC(=O)[C@@H]1CSSC[C@@H]2NC(=O)[C@H](C)NC(=O)[C@H](CCCNC(=N)N)NC(=O)[C@H](CCCCN)NC(=O)[C@H](CO)NC(=O)[C@H](CC(=O)O)NC(=O)[C@@H]3CSSC[C@H](NC(=O)[C@H](CCC(=O)O)NC(=O)[C@H](CC(C)C)NC(=O)CNC(=O)[C@H](CCC(=O)O)NC(=O)[C@H](CSSC[C@H](NC(=O)[C@@H](N)CCC(=O)O)C(=O)N[C@@H](CCC(N)=O)C(=O)N[C@@H](CCCCN)C(=O)N[C@@H](Cc4c[nH]c5ccccc45)C(=O)N[C@@H](CCSC)C(=O)N[C@@H](Cc4c[nH]c5ccccc45)C(=O)N[C@@H]([C@@H](C)O)C(=O)N3)NC2=O)C(=O)N[C@@H](CCCCN)C(=O)N[C@@H](CC(C)C)C(=O)N[C@@H](Cc2c[nH]c3ccccc23)C(=O)N1)C(N)=O [compound 277] | > 5 µM | > 10 µM | 5.5 nM | > 5000 nM | 210 nM | 2 µM | 939 nM |  |  |  |  |  |  | 
CC[C@H](C)[C@H](NC(=O)[C@@H](NC(=O)[C@H](CCCCN)NC(=O)[C@H](CCCNC(=N)N)NC(=O)[C@@H]1CSSC[C@@H]2NC(=O)[C@H](C)NC(=O)[C@H](CCCNC(=N)N)NC(=O)[C@H](CCCCN)NC(=O)[C@H](CO)NC(=O)[C@H](CC(=O)O)NC(=O)[C@@H]3CSSC[C@H](NC(=O)CNC(=O)[C@H](CC(C)C)NC(=O)CNC(=O)[C@H](CCC(=O)O)NC(=O)[C@H](CSSC[C@H](NC(=O)[C@@H](N)Cc4ccc(O)cc4)C(=O)N[C@@H](CCC(N)=O)C(=O)N[C@@H](CCCCN)C(=O)N[C@@H](Cc4c[nH]c5ccccc45)C(=O)N[C@@H](CCSC)C(=O)N[C@@H](Cc4c[nH]c5ccccc45)C(=O)N[C@@H]([C@@H](C)O)C(=O)N3)NC2=O)C(=O)N[C@@H](CCCCN)C(=O)N[C@@H](CC(C)C)C(=O)N[C@@H](Cc2c[nH]c3ccccc23)C(=O)N1)[C@@H](C)CC)C(N)=O [compound 121] | 1.9 µM | 14.1 µM | 7.8 nM | 980 nM | 60 nM | 9.8 µM | 197 nM | 29 | 25 |  |  |  |  | 
CC[C@H](C)[C@H](NC(=O)[C@H](Cc1ccc(O)cc1)NC(=O)[C@H](CCCCN)NC(=O)[C@H](CCCNC(=N)N)NC(=O)[C@@H]1CSSC[C@@H]2NC(=O)[C@H](C)NC(=O)[C@H](CCCNC(=N)N)NC(=O)[C@H](CCCCN)NC(=O)[C@H](CO)NC(=O)[C@H](CC(=O)O)NC(=O)[C@@H]3CSSC[C@H](NC(=O)[C@H](CCC(=O)O)NC(=O)[C@H](CC(C)C)NC(=O)CNC(=O)[C@H](CCC(=O)O)NC(=O)[C@H](CSSC[C@H](NC(=O)[C@@H](N)Cc4ccc(O)cc4)C(=O)N[C@@H](CCC(N)=O)C(=O)N[C@@H](CCCCN)C(=O)N[C@@H](Cc4ccc(I)cc4)C(=O)N[C@@H](CCSC)C(=O)N[C@@H](Cc4c[nH]c5ccccc45)C(=O)N[C@@H]([C@@H](C)O)C(=O)N3)NC2=O)C(=O)N[C@@H](CCCCN)C(=O)N[C@@H](CC(C)C)C(=O)N[C@@H](Cc2c[nH]c3ccccc23)C(=O)N1)C(N)=O [compound 192] | 3.4 µM | > 1 µM | 2.2 nM | 1300 nM | 110 nM | > 5 µM | 172 nM | 30 | 78 |  |  |  |  | 
C#CC[C@@H]1NC(=O)[C@H](CCCNC(=N)N)NC(=O)[C@H](CCCCN)NC(=O)[C@H](CO)NC(=O)[C@H](CC(=O)O)NC(=O)[C@@H]2CSSC[C@@H]3NC(=O)[C@H](CCCNC(=N)N)NC(=O)[C@H](CC(C)C)NC(=O)CNC(=O)[C@H](CCC(=O)O)NC(=O)[C@H](CSSC[C@H](NC(=O)[C@@H](N)Cc4ccc(O)cc4)C(=O)N[C@@H](CCC(N)=O)C(=O)N[C@@H](CCCCN)C(=O)N[C@@H](Cc4c[nH]c5ccccc45)C(=O)N[C@@H](CCCC)C(=O)N[C@@H](Cc4c[nH]c5ccccc45)C(=O)N[C@@H]([C@@H](C)O)C(=O)N2)NC(=O)[C@H](CSSC[C@@H](C(=O)N[C@@H](CCCNC(=N)N)C(=O)N[C@@H](CCCCN)C(=O)N[C@H](C(=O)N[C@H](C(N)=O)[C@@H](C)CC)[C@@H](C)CC)NC(=O)[C@H](Cc2c[nH]c4ccccc24)NC(=O)[C@H](CC(C)C)NC(=O)[C@H](CCCCN)NC3=O)NC1=O [compound 283] | 0.09 µM |  |  | 60 nM | 70 nM | > 7 µM |  | 1 |  | 0.63 µM | 0.3 nM | 5 nM | 17 | 
CC[C@H](C)[C@H](NC(=O)[C@@H](NC(=O)[C@H](CCCCN)NC(=O)[C@H](CCCNC(=N)N)NC(=O)[C@@H]1CSSC[C@@H]2NC(=O)[C@H](C)NC(=O)[C@H](CCCNC(=N)N)NC(=O)[C@H](CCCCN)NC(=O)[C@H](CO)NC(=O)[C@H](CC(=O)O)NC(=O)[C@@H]3CSSC[C@H](NC(=O)[C@H](CC(=O)O)NC(=O)[C@H](CC(C)C)NC(=O)CNC(=O)[C@H](CCC(=O)O)NC(=O)[C@H](CSSC[C@H](NC(=O)[C@@H](N)Cc4ccc(O)cc4)C(=O)N[C@@H](CCC(N)=O)C(=O)N[C@@H](CCCCN)C(=O)N[C@@H](Cc4c[nH]c5ccccc45)C(=O)N[C@@H](CCSC)C(=O)N[C@@H](Cc4c[nH]c5ccccc45)C(=O)N[C@@H]([C@@H](C)O)C(=O)N3)NC2=O)C(=O)N[C@@H](CCCCN)C(=O)N[C@@H](CC(C)C)C(=O)N[C@@H](Cc2c[nH]c3ccccc23)C(=O)N1)[C@@H](C)CC)C(N)=O [compound 115] | > 5 µM | 3.2 µM | 749 nM | > 5000 nM | 90 nM | 11.1 µM | 7600 nM | 53 | 10 |  |  |  |  | 4
